Each block holds one compound with its values, some of them ahead of it.
Columns and labels:
[1] = attributed to oxidation of dithiolane ring and NMe2; cited from earlier work
AKT Tyr176 = conditions: pancreatic cancer cells; cited from earlier work
[2] = system: castration and radioresistant prostate xenograft tumor; conditions: in vivo; cited from earlier work
AR Tyr267 = conditions: cited from earlier work
ACK1 [3] = target: T1, ACK1 (Homo sapiens, UniProt Q07912); test: Reaction Biology 33P Hotspot assay; format: biochemical
T1 construct: purchased Reaction Biology

UKE1 = test: Cell viability (UKE1); format: cell-based
MDA-MB-231 = test: Cell viability (MDA-MB-231); format: cell-based; conditions: Homo sapiens
ACK1 [4] = target: T1, ACK1; test: ACK1 IC50 (Table 1, assay not specified); format: biochemical

T1 sequence (Q07912 whole entry): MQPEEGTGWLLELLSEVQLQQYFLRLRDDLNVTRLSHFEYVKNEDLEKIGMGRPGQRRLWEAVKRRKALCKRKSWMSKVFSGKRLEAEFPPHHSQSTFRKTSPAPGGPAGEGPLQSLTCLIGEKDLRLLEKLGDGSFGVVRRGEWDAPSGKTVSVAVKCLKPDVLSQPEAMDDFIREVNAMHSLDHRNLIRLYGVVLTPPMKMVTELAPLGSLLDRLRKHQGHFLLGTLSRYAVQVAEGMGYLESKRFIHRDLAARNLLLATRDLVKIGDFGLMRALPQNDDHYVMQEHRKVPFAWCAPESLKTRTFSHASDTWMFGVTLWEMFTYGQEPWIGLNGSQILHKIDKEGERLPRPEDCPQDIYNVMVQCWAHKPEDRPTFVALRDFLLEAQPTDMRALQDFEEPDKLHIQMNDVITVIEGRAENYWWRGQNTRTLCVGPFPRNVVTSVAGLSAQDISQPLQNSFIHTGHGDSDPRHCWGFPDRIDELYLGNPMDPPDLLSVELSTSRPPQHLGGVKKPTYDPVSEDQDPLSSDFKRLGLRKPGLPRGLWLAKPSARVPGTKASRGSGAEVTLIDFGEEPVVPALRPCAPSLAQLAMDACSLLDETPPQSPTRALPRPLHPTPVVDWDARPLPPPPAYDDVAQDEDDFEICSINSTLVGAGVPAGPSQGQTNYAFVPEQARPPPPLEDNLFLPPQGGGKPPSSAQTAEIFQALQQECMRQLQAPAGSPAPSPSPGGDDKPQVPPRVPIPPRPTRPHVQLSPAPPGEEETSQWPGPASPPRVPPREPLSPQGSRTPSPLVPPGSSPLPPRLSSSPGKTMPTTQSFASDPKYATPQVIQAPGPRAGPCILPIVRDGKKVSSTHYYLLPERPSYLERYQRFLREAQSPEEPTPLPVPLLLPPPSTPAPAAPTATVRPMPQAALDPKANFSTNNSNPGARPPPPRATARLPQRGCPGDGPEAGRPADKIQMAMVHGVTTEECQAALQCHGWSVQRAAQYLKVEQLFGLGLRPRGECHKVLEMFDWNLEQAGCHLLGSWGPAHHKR

Compound: CN(C)CCOc1ccc(-c2oc3ncnc(NCC4SCCS4)c3c2-c2ccccc2)cc1 [Compound 1c]
pharmacokinetic properties [1]: poor pharmacokinetic properties

Compound: c1ccc(-c2oc3ncnc(NC[C@@H]4CCCO4)c3c2-c2ccccc2)cc1 [Compound 1b]
ACK1 dependent AKT Tyr176 phosphorylation (AKT Tyr176): inhibits | castration and radioresistant prostate xenograft tumor growth [2]: inhibits | AR Tyr267 phosphorylation (AR Tyr267): inhibits

IC50 (ACK1 [3]): 29.1 nM | EC50 (MDA-MB-231): 7.72 µM
Compound: Cn1cc(-c2ccc(Nc3ncc(Cl)c(NCC4CCOCC4)n3)cc2)cn1 [5-chloro-N^2-(4-(1-methyl-1H-pyrazol-4-yl)phenyl)-N^4-((tetrahydro-2H-pyran-4-yl)methyl)pyrimidine-2,4-diamine]
EC50 (UKE1): 6.7 µM

IC50 (ACK1 [4]): 0.0461 µM
Compound: OCCn1cc(-c2ccc(Nc3ncc(Cl)c(NC[C@H]4CCCO4)n3)cc2F)cn1 [(R)-2-(4-(4-((5-chloro-4-(((tetrahydrofuran-2-yl)methyl)amino)pyrimidin-2-yl)amino)-2-fluorophenyl)-1H-pyrazol-1-yl)ethan-1-ol]
